# Measurements: patent publication US20250302822A1, “COMPOSITION FOR ENHANCING ANTICANCER EFFECT OF MEK INHIBITOR COMPRISING ARIPIPRAZOLE AS ACTIVE INGREDIENT” (KOREA INSTITUTE OF RADIOLOGICAL & MEDICAL SCIENCES, priority 2022, published 2025)
# Columns and labels:
# NOXA = NOXA protein expression in COLO 205 cells via Western blot; type: cell-based; settings: eight hours after treatment, Western blot (FIG. 1)
# Method: (§1) To identify an effect of aripiprazole on the expression of NOXA and PUMA proteins in cancer cells, COLO 205 cells were treated with aripiprazole. Eight hours later, proteins were extracted from cells after washing with PBS, and a level of NOXA and PUMA expression was checked via Western blot.
# PUMA = PUMA protein expression in COLO 205 cells via Western blot; type: cell-based; settings: eight hours after treatment, Western blot (FIG. 1)
# Method: as §1
compound,measurement,setting,value
O=C1CCc2ccc(OCCCCN3CCN(c4cccc(Cl)c4Cl)CC3)cc2N1 [aripiprazole],expression of NOXA protein,NOXA,increased
same,expression of PUMA protein,PUMA,increased
